Consider four compounds from patent publication US8586109B2, “Annatto extract compositions including tocotrienols and tocopherols and methods of use” (American River Nutrition, Inc., priority 2003, dated 2013).

One test relates to essential hypertension. As to the kind of experiment: Hypertension (Example 13). The conditions noted are these: in vivo. The source says:
Also, C-5 unsubstituted tocols (i.e., all delta and gamma isomers) had this effect.

For another test, the system named is IKBKAP. To be noted: Anderson et al. 2003; cited from earlier work.
The subject of a further test is cholesterol. To be noted: Pearce et al. 1992; cited from earlier work.
The conditions of test [1]: cited from earlier work.
For test [2], the system named is spontaneous hypertensive rats (SHR). The conditions noted are these: Newaz and Nawal 1999; cited from earlier work.
A further test concerns C-reactive protein. To be noted: higher dosage needed; cited from earlier work.
For test [3] the following is noted: some biologic systems; cited from earlier work.

`CC(C)=CCC/C(C)=C/CC/C(C)=C/CC[C@]1(C)CCc2cc(O)cc(C)c2O1` [Delta-tocotrienol, delta-tocotrienol]: in the test with essential hypertension, the NOS activity result is listed as “increased NOS activity” and the essential hypertension entry is recorded as “reduced essential hypertension”. The “increase of IKBKAP gene transcription” value with IKBKAP is listed as 3.5 fold. In the test on cholesterol, the “isomeric potency of cholesterol reduction (relative)” value was “greater than gamma-T3”. In addition, in test [1] (greater than alpha-T3), the “Biologic activity relative to alpha-T3” value was 4-10 times. Further, the “Biologic activity relative to gamma-T3” value in test [1] (greater than gamma-T3) is listed as 1-2 times.

Regarding `CC(C)=CCC/C(C)=C/CC/C(C)=C/CC[C@]1(C)CCc2cc(O)c(C)c(C)c2O1` [Gamma-T3, gamma-tocotrienol], in the test on essential hypertension, the NOS activity result was “increased NOS activity”, the “development of increased blood pressure” value was “prevented the development of increased blood pressure” and the essential hypertension result is recorded as “reduced essential hypertension”. For the same compound, in the test on cholesterol, the “isomeric potency of cholesterol reduction (relative)” value is “five-fold greater than alpha-T3”. For the same compound, the “development of increased blood pressure” value in test [2] is “prevent the development of increased blood pressure”.

As for `Cc1c(C)c2c(c(C)c1O)CC[C@@](C)(CCC[C@H](C)CCC[C@H](C)CCCC(C)C)O2` [alpha-T1, Alpha-tocopherol], the “required dosage to lower CRP to a comparable range, relative to annatto tocotrienols” value with C-reactive protein is reported as “approximately 10 fold”.

For the compound Alpha-tocotrienol, the “anti-oxidant power compared to alpha-T1” value in test [3] is given as “(40-60X in some biologic systems). First discovered to reduce cholesterol,”. For the same compound, the “isomeric potency of cholesterol reduction (relative)” value in the test on cholesterol is “at least five-fold less active”.
